Measurements reported in ChEMBL document CHEMBL5329225, “Solubilizer Tag Effect on PD-L1/Inhibitor Binding Properties for m-Terphenyl Derivatives” (ACS Med Chem Lett, 2024).
Active and inactive are the calls of the source. The rule behind the calls is not given here.

How the values were obtained:
[1] = test system: Jurkat; experiment: Induction of T cell activation in human Jurkat T cells overexpressing PD-1 co-cultured with Chinese hamster CHO cells overexpressing PD-L1 assessed as increase in luciferase activity at 1 uM incubated for 6 hrs by Bio-GloTM reagent based immune checkpoint blockade assay; assay type: functional
[2] = test system: Jurkat; experiment: Induction of T cell activation in human Jurkat T cells overexpressing PD-1 co-cultured with Chinese hamster CHO cells overexpressing PD-L1 assessed as increase in luciferase activity incubated for 6 hrs by Bio-GloTM reagent based immune checkpoint blockade assay; assay type: functional
[3] = Toxicity in human Jurkat T cells overexpressing PD-1 co-cultured with Chinese hamster CHO cells overexpressing PD-L1 at 0.01 to 100 uM; assay type: cell-based; conditions: dose 0.01-100 µM
[4] = test system: Jurkat; experiment: Induction of T cell activation in human Jurkat T cells overexpressing PD-1 co-cultured with Chinese hamster CHO cells overexpressing PD-L1 assessed as increase in luciferase activity at 6.4 uM incubated for 6 hrs by Bio-GloTM reagent based immune checkpoint blockade assay; assay type: functional
[5] = target: Programmed cell death protein 1/Programmed cell death 1 ligand 1 (Homo sapiens, UniProt Q9NZQ7); experiment: Inhibition of human PD-1/PDL1 interaction incubated for 1 hr by HTRF assay; assay type: protein-complex assay
Sequence of Programmed cell death protein 1/Programmed cell death 1 ligand 1 (Q15116 whole entry): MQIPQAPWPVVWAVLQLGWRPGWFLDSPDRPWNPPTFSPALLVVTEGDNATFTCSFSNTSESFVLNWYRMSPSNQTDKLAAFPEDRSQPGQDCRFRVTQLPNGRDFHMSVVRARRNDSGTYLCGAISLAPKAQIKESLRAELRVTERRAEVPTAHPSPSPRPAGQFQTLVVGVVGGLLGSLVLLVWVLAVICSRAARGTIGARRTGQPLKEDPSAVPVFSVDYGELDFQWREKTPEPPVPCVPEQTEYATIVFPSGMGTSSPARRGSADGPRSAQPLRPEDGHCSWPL
Sequence of Programmed cell death protein 1/Programmed cell death 1 ligand 1 (Q9NZQ7 whole entry): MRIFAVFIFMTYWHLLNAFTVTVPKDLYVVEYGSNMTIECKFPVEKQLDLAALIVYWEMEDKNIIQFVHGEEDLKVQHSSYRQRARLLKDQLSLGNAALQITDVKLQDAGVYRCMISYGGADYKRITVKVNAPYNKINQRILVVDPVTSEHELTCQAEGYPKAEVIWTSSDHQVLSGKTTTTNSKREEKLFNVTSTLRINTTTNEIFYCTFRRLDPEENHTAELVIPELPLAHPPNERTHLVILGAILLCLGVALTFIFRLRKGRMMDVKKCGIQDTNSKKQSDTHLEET

Structure (SMILES): COc1cc(-c2cccc(-c3ccc4c(c3)OCCO4)c2Cl)ccc1CN1CCC(C(=O)NO)C1 (stereo not given)
- Activity [1]: inactive

Structure (SMILES): COc1cc(-c2cccc(-c3ccc4c(c3)OCCO4)c2Cl)ccc1CN1CCC(C(=O)NN(C)C)C1 (stereo not given)
- Activity [2]: Dose-Dependent Effect
- Activity [3]: Toxic
- Activity [4]: Active

Structure (SMILES): COc1cc(-c2cccc(-c3ccc4c(c3)OCCO4)c2Cl)ccc1CN1CCCC(C(=O)NC(CO)CO)C1 (stereo not given)
- IC50 [5]: 6 nM

Structure (SMILES): COc1cc(-c2cccc(-c3ccc4c(c3)OCCO4)c2Cl)ccc1CN1CCC(C(=O)NC(CO)CO)C1 (stereo not given)
- Activity [2]: Dose-Dependent Effect
- Activity [3]: Toxic
- Activity [1]: inactive
- Activity [4]: Active

Structure (SMILES): COc1cc(-c2cccc(-c3ccc4c(c3)OCCO4)c2Cl)ccc1CN1CCC(C(=O)NC(CO)(CO)CO)C1 (stereo not given)
- Activity [1]: inactive
- Activity [4]: inactive

Structure (SMILES): COc1cc(-c2cccc(-c3ccc4c(c3)OCCO4)c2Cl)ccc1CN1CCC(C(=O)NCCN)C1 (stereo not given)
- Activity [1]: inactive
- Activity [4]: inactive

Structure (SMILES): COc1cc(-c2cccc(-c3ccc4c(c3)OCCO4)c2Cl)ccc1CN1CCC(C(=O)NCCO)C1 (stereo not given)
- Activity [2]: Dose-Dependent Effect
- Activity [3]: Toxic
